# From patent US20030219764A1, “Biological discovery using gene regulatory networks generated from multiple-disruption expression libraries” (priority 2001, published 2003)
# Experiments:
# [1] = system: yeast strain BY4741; experiment: Drug response full-genome cDNA microarray gene expression experiments; type: cell-based, Saccharomyces cerevisiae; settings: among 552 genes which differed in expression between drug treated and normal yeast; dosages of 10, 50 and 100 mg in 10 ml of DMF; 0, 15, 30, 45 and 60 minutes
# Experimental: The yeast strain used in this study is BY4741. To monitor the gene expression profile, cells were pre-grown at 30° C. in YPD (2% polypeptone, 1% yeast extract and 2% glucose) to mid-exponential phase and were exposed with Griseofulvin by adding it to the medium to the concentrations at 0, 10, 25, 50, and 100 mg/ml. The exposed cells were harvested at 0, 15, 30, 45 and 60 min after addition by Griseofulvin and used for RNA extraction. Total RNAs were extracted by the hot-phenol method.
# We measured the quantities of 5871 mRNA species from 20 drug treated strains by cDNA microarray assay. A difference in fluorescent strength between Cy3, Cy5 causes bias of the expression quantity ratio. We normalized the expression quantity ratios of each expression profile. […] The logarithm value of the ratio was used to indicate the standard expression level, therefore we found the logarithm value of ratio and calculated the average and standard deviation of these log values (see table1). The Standard Deviation (SD) of expression levels of all spotted genes from the UME6 (YDR207C) disruptant expression array for which UME6 is defined as a “Global Regulator” in YPD^(33) disruptant was 0.4931, therefore we recognized that there are an unacceptable number of errors in array data whose overall SD was larger than 0.5 and eliminated such experiments from analysis. […]
# [2] = system: CIK1; experiment: Boolean network analysis of joint drug response and gene disruption expression matrices (virtual gene); type: cell-based, Saccharomyces cerevisiae
# Description: In addition to the Boolean methods for gene disruption experiments reported elsewhere^(11), we created a gene expression matrix E from a set of the drug treatment experiments combined with disruptant expression data. In the case of drug generated perturbation, we created a “virtual” gene to represent the drug affect analogous to a gene disruption. We then were able to use standard disruption matrix algorithms designed for disruption based data.
# In YPD, 314 genes were defined as “transcription factors”, and 98 of these have previously been studied for control mechanism. The expression profile data of 552 genes including the genes that are controlled by these 98 “transcription factors” were selected from 5871 profiles. Thus we constructed the gene regulatory network from the expression profile data set based on the values of these 552 genes in 120 gene disruption experiments and 20 drug treatment experiments.
# However, the use of gene regulatory network models, combined with the drug perturbation data allows for a hierarchical gene regulatory view of the drug's interaction with genes in the transcriptome. To generate this gene network drug perturbation data, we first created a full genome expression library of 542 single-gene disruption mutants. The 120 array data selected from the library was logically joined with the array matrices generated from the Griseofulvin experiments. […]
# [3] = system: mitotic spindle structure in yeast; experiment: Pathological and microscopic examination of Griseofulvin treated yeast versus CIK1 disrupted yeast; type: cell-based
# Description: CIK1 codes for a protein described in the yeast proteome database (YPD) as a coiled-coil protein of the spindle pole body involved in spindle formation and the congression (nuclear migration) step of karyogamy^(13). Since the action of Griseofulvin is known to affect mitotic spindle formation, which is in agreement with the function of CIK1^(14), we performed a pathological examination of a yeast strain with a disrupted CIK1 gene and yeast affected by Griseofulvin.
# [4] = system: mitotic spindle structure in fungi; settings: cited from earlier work
compound,measurement,setting,value
COC1=CC(=O)C[C@@H](C)[C@]12Oc1c(Cl)c(OC)cc(OC)c1C2=O [Griseofulvin],genes downregulated by over a 2 sigma threshold,[1],183 genes
same,suppression of CIK1 expression,"[2]; among the 8 first-effect genes, across the experiments",strongest suppression effects
same,genes consistently and significantly suppressed as first effects,[2]; at each time and drug concentration,8 genes
same,mitotic spindle structure compared with CIK1 deleted yeast,[3]; microscopic examination,very similar changes of the spindle body and surrounding organizational structures
same,lethality to yeast,[3]; normal physiological dosage,neither the treatment with Griseofulvin at normal physiological dosage nor the disruption of CIK1 are lethal
same,effect on mitotic spindle structure,[4],disrupts mitotic spindle structure in fungi to lead to metaphase arrest
